Experimental data as given in the NIST ThermoML archive (doi:10.1021/je700438d).

Test: mn = molality of the nth substance listed, in mol/kg
Settings: Liquid, Vibrating tube method

[Cl-].[Li+] [lithium chloride] + CCO
Settings	mass density [kg/m3]
298.15 K, 120 kPa, m1 = 2.88	865.97
298.15 K, 180 kPa, m1 = 0.3023	795.82
298.15 K, 210 kPa, m1 = 0.1049	789.29
298.15 K, 210 kPa, m1 = 1.222	823.5
298.15 K, 250 kPa, m1 = 0.5873	804.88
298.15 K, 410 kPa, m1 = 2.022	845.2
298.15 K, 5040 kPa, m1 = 0.3023	799.96
298.15 K, 5040 kPa, m1 = 2.88	869.78
298.15 K, 5120 kPa, m1 = 0.1049	793.51
298.15 K, 5230 kPa, m1 = 2.022	849.07
298.15 K, 5470 kPa, m1 = 1.222	827.84
298.15 K, 5520 kPa, m1 = 0.5873	809.31
298.15 K, 9820 kPa, m1 = 1.222	831.28
298.15 K, 10030 kPa, m1 = 0.1049	797.57
298.15 K, 10050 kPa, m1 = 2.022	852.76
298.15 K, 10240 kPa, m1 = 0.3023	804.22
298.15 K, 10320 kPa, m1 = 2.88	873.67
298.15 K, 10440 kPa, m1 = 0.5873	813.28
298.15 K, 14990 kPa, m1 = 1.222	835.2
298.15 K, 15030 kPa, m1 = 2.022	856.4
298.15 K, 15170 kPa, m1 = 0.5873	816.95
298.15 K, 15240 kPa, m1 = 0.1049	801.71
298.15 K, 15620 kPa, m1 = 0.3023	808.44
298.15 K, 15640 kPa, m1 = 2.88	877.37
298.15 K, 19040 kPa, m1 = 1.222	838.14
298.15 K, 19250 kPa, m1 = 0.5873	819.98
298.15 K, 20050 kPa, m1 = 0.3023	811.77
298.15 K, 20060 kPa, m1 = 0.1049	805.39
298.15 K, 20120 kPa, m1 = 2.022	859.94
298.15 K, 20610 kPa, m1 = 2.88	880.65
298.15 K, 25080 kPa, m1 = 2.88	883.43
298.15 K, 25410 kPa, m1 = 0.1049	809.29
298.15 K, 25460 kPa, m1 = 1.222	842.57
298.15 K, 25610 kPa, m1 = 2.022	863.54
298.15 K, 25640 kPa, m1 = 0.5873	824.52
298.15 K, 25840 kPa, m1 = 0.3023	815.92
298.15 K, 30060 kPa, m1 = 0.1049	812.53
298.15 K, 30080 kPa, m1 = 2.022	866.32
298.15 K, 30110 kPa, m1 = 0.5873	827.53
298.15 K, 30190 kPa, m1 = 1.222	845.65
298.15 K, 30410 kPa, m1 = 2.88	886.56
298.15 K, 30560 kPa, m1 = 0.3023	819.15
298.15 K, 35090 kPa, m1 = 2.88	889.13
298.15 K, 35410 kPa, m1 = 2.022	869.43
298.15 K, 35560 kPa, m1 = 0.5873	831.01
298.15 K, 35710 kPa, m1 = 0.1049	816.28
298.15 K, 35840 kPa, m1 = 0.3023	822.58
298.15 K, 35870 kPa, m1 = 1.222	849.13
298.15 K, 39820 kPa, m1 = 0.5873	833.6
298.15 K, 39910 kPa, m1 = 0.3023	825.1
298.15 K, 39940 kPa, m1 = 2.022	871.92
298.15 K, 39980 kPa, m1 = 0.1049	818.97
298.15 K, 39980 kPa, m1 = 2.88	891.64
298.15 K, 40070 kPa, m1 = 1.222	851.57
323.15 K, 120 kPa, m1 = 0.1049	767.47
323.15 K, 140 kPa, m1 = 0.3023	774.35
323.15 K, 180 kPa, m1 = 2.88	845.88
323.15 K, 230 kPa, m1 = 2.022	824.57
323.15 K, 240 kPa, m1 = 0.5873	783.81
323.15 K, 410 kPa, m1 = 1.222	802.86
323.15 K, 5030 kPa, m1 = 0.5873	788.42
323.15 K, 5070 kPa, m1 = 1.222	807.19
323.15 K, 5140 kPa, m1 = 0.1049	772.47
323.15 K, 5210 kPa, m1 = 0.3023	779.31
323.15 K, 5410 kPa, m1 = 2.022	829.25
323.15 K, 5410 kPa, m1 = 2.88	850.34
323.15 K, 10020 kPa, m1 = 0.1049	777.11
323.15 K, 10050 kPa, m1 = 0.5873	793.02
323.15 K, 10080 kPa, m1 = 2.022	833.25
323.15 K, 10080 kPa, m1 = 2.88	854.11
323.15 K, 10200 kPa, m1 = 1.222	811.76
323.15 K, 10230 kPa, m1 = 0.3023	784
323.15 K, 15060 kPa, m1 = 0.3023	788.31
323.15 K, 15230 kPa, m1 = 2.022	837.42
323.15 K, 15240 kPa, m1 = 2.88	858.04
323.15 K, 15290 kPa, m1 = 1.222	816.02
323.15 K, 15320 kPa, m1 = 0.1049	781.93
323.15 K, 15620 kPa, m1 = 0.5873	797.87
323.15 K, 20040 kPa, m1 = 0.1049	786.01
323.15 K, 20060 kPa, m1 = 2.88	861.48
323.15 K, 20150 kPa, m1 = 1.222	819.88
323.15 K, 20410 kPa, m1 = 2.022	841.36
323.15 K, 20450 kPa, m1 = 0.3023	792.88
323.15 K, 20470 kPa, m1 = 0.5873	801.87
323.15 K, 25040 kPa, m1 = 0.3023	796.57
323.15 K, 25060 kPa, m1 = 0.1049	790.15
323.15 K, 25060 kPa, m1 = 1.222	823.57
323.15 K, 25140 kPa, m1 = 0.5873	805.52
323.15 K, 25300 kPa, m1 = 2.88	864.98
323.15 K, 25310 kPa, m1 = 2.022	844.84
323.15 K, 30010 kPa, m1 = 2.022	847.97
323.15 K, 30060 kPa, m1 = 0.3023	800.4
323.15 K, 30060 kPa, m1 = 0.5873	809.15
323.15 K, 30070 kPa, m1 = 2.88	867.94
323.15 K, 30150 kPa, m1 = 0.1049	794.13
323.15 K, 30420 kPa, m1 = 1.222	827.32
323.15 K, 35020 kPa, m1 = 0.3023	803.97
323.15 K, 35210 kPa, m1 = 2.88	870.9
323.15 K, 35220 kPa, m1 = 0.5873	812.74
323.15 K, 35410 kPa, m1 = 1.222	830.59
323.15 K, 35420 kPa, m1 = 2.022	851.3
323.15 K, 35610 kPa, m1 = 0.1049	798.15
323.15 K, 39860 kPa, m1 = 2.88	873.36
323.15 K, 39940 kPa, m1 = 0.1049	801.15
323.15 K, 39960 kPa, m1 = 1.222	833.36
323.15 K, 39970 kPa, m1 = 0.5873	815.82
323.15 K, 39970 kPa, m1 = 2.022	853.89
323.15 K, 39980 kPa, m1 = 0.3023	807.32
348.15 K, 140 kPa, m1 = 0.1049	743.86
348.15 K, 150 kPa, m1 = 2.022	803.25
348.15 K, 170 kPa, m1 = 0.3023	751.06
348.15 K, 420 kPa, m1 = 1.222	780.84
348.15 K, 540 kPa, m1 = 2.88	825.55
348.15 K, 740 kPa, m1 = 0.5873	761.48
348.15 K, 4960 kPa, m1 = 2.022	808.25
348.15 K, 5060 kPa, m1 = 0.3023	756.68
348.15 K, 5060 kPa, m1 = 0.5873	766.32
348.15 K, 5060 kPa, m1 = 1.222	785.85
348.15 K, 5080 kPa, m1 = 0.1049	749.63
348.15 K, 5140 kPa, m1 = 2.88	829.96
348.15 K, 10030 kPa, m1 = 2.022	813.19
348.15 K, 10060 kPa, m1 = 0.1049	755.18
348.15 K, 10070 kPa, m1 = 0.3023	762.15
348.15 K, 10080 kPa, m1 = 2.88	834.46
348.15 K, 10210 kPa, m1 = 1.222	791.09
348.15 K, 10530 kPa, m1 = 0.5873	772.13
348.15 K, 14960 kPa, m1 = 2.022	817.67
348.15 K, 15060 kPa, m1 = 2.88	838.73
348.15 K, 15120 kPa, m1 = 0.3023	767.36
348.15 K, 15280 kPa, m1 = 1.222	795.92
348.15 K, 15290 kPa, m1 = 0.5873	776.89
348.15 K, 15410 kPa, m1 = 0.1049	760.81
348.15 K, 20030 kPa, m1 = 2.022	821.94
348.15 K, 20060 kPa, m1 = 0.1049	765.44
348.15 K, 20070 kPa, m1 = 2.88	842.77
